One assay has as its target T1, MCT1 (Homo sapiens, UniProt P53985).
T1 construct: a human erythroleukemia line predominantly expressing MCT1, a small amount of MCT2 and no MCT4; host or cells: K562
T1 sequence (P53985 1-500): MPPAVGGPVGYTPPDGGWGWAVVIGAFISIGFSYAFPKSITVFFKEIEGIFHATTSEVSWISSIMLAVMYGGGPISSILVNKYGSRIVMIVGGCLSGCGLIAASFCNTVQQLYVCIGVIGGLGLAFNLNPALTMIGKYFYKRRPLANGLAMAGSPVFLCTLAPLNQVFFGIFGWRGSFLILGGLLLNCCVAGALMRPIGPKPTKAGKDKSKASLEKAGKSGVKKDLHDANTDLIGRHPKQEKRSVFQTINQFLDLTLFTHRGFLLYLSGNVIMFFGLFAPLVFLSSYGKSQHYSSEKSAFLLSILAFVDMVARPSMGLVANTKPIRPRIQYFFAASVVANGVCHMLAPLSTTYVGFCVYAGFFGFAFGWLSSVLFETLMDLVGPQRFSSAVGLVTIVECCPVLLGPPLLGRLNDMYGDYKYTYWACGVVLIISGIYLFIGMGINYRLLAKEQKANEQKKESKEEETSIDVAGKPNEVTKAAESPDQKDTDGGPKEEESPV
Description: Assay (c): FLIPR BCECF lactate influx in K562 cells. The assay is classed as cell-based. The note with it: mean of at least three repeats, read-out: MCT1 FLIPR pIC50 (K562) (converted).

Assay [1] addresses T2, MCT4 (Homo sapiens, UniProt O15427).
T2 sequence (O15427 1-465): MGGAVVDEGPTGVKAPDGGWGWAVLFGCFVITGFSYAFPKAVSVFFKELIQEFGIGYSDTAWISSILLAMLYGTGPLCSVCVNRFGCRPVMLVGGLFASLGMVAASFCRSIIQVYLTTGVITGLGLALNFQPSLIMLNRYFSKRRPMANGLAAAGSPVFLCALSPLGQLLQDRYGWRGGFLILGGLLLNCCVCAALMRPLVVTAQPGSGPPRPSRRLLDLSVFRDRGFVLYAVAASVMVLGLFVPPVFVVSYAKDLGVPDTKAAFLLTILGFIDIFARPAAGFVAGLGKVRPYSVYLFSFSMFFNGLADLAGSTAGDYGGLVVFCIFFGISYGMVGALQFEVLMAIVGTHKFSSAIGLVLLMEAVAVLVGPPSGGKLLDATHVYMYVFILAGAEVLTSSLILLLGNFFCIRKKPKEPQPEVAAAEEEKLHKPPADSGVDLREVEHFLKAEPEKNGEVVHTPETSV
Description: cell-based.

Assay [2] deals with T2, MCT4. The assay is described as follows: Assay (a): lactate efflux from SK-Br-3 cells (lactate in media, 4 h). The assay is classed as cell-based. Details: a natively glycolytic human breast adenocarcinoma line predominantly expressing MCT4; host or cells: SK-Br-3. The settings on record: mean of at least three repeats (Example 32, marked *, two repeats), read-out: MCT4 lactate efflux pIC50 (SKBR3) (converted). As for the experimental part:
Assay plates were lidded and incubated for 4 hours at 37° C. and 5% CO2.

Description for MCT1: Cells were loaded with the pH sensitive dye BCECFAM(Invitrogen #B11150) before being washed to remove excess dye and seeded into the assay plates—directly onto the test compound—at a density of 15,000 cells/well (NCI—H358) or 30,000 cells/well (K562), in 30 μl HBSS with 1 mM [final] […] Assay plates were lidded and spun in a plate centrifuge at 170 g for 1 minute. Plates were then wrapped in foil and incubated in the dark for 1 hour at room temperature.
Following incubation with test compound, 10 μl of 25 mM Sodium-L-Lactate (Sigma #L7022) made up in HBSS with 1 mM [final] […] This addition was performed directly on the FLIPR Tetra platform (Molecular Devices) as part of a real-time kinetic read protocol. […] A percentage change from base-line was calculated for each test well and values normalised to control wells—treated with either DMSO (maximum assay signal) or chemistry related to that described in this patent (minimum assay signal)—before fitting concentration response curves to determine an IC50 value.

For the compound `Cc1nc2nc(C)c(C[C@@H]3CCN(c4ccc(-c5ccc(CN6CCOCC6)nn5)nc4)C3)c(C)n2n1` [Example 9, (R)-4-((6-(5-(3-((2,5,7-trimethyl-[1,2,4]triazolo[1,5-a]pyrimidin-6-yl)methyl)pyrrolidin-1-yl)pyridin-2-yl)pyridazin-3-yl)methyl)morpholine], the IC50 is > 20000 nM on MCT1, 15.8 nM against MCT4 [1] and 0.501 nM at MCT4 [2].

Regarding `Cc1nc2nc(C)c(C[C@@H]3CCN(c4ccc(-c5ccc(CN6CCOCC6)nn5)cc4)C3)c(C)n2n1` [Example 29, (R)-4-((6-(4-(3-((2,5,7-trimethyl-[1,2,4]triazolo[1,5-a]pyrimidin-6-yl)methyl)pyrrolidin-1-yl)phenyl)pyridazin-3-yl)methyl)morpholine], on MCT1, the IC50 was > 15800 nM.

On to `Cc1nc2nc(C)c(C[C@@H]3CCN(c4cnc(-c5ccc(CN6CCN(C)C[C@H]6C)cc5)cn4)C3)c(C)n2n1` [Example 34, 6-(((R)-1-(5-(4-(((R)-2,4-dimethylpiperazin-1-yl)methyl)phenyl)pyrazin-2-yl)pyrrolidin-3-yl)methyl)-2,5,7-trimethyl-[1,2,4]triazolo[1,5-a]pyrimidine], for which the IC50 is > 25100 nM at MCT1, 63.1 nM at MCT4 [1] and 1.58 nM on MCT4 [2].

As for `Cc1nc2nc(C)c(C[C@@H]3CCN(c4cnc(-c5ccc(CN6C[C@@H](C)N(C)C[C@H]6C)cc5)cn4)C3)c(C)n2n1` [Example 35, 2,5,7-trimethyl-6-(((R)-1-(5-(4-(((2R,5R)-2,4,5-trimethylpiperazin-1-yl)methyl)phenyl)pyrazin-2-yl)pyrrolidin-3-yl)methyl)-[1,2,4]triazolo[1,5-a]pyrimidine], the IC50 was > 25100 nM at MCT1, 15.8 nM against MCT4 [1] and 0.631 nM at MCT4 [2].

With `Cc1nc2nc(C)c(C[C@@H]3CCN(c4cnc(-c5ccc(CN6C[C@@H](C)N(C)C[C@@H]6C)cc5)cn4)C3)c(C)n2n1` [Example 36, 2,5,7-trimethyl-6-(((R)-1-(5-(4-(((2S,5R)-2,4,5-trimethylpiperazin-1-yl)methyl)phenyl)pyrazin-2-yl)pyrrolidin-3-yl)methyl)-[1,2,4]triazolo[1,5-a]pyrimidine], the IC50 was > 25100 nM on MCT1 and 0.501 nM on MCT4 [2].

As for `Cc1nc2nc(C)c(C[C@@H]3CCN(c4cnc(-c5ccc(CN6CCN(CCO)CC6)cc5)cn4)C3)c(C)n2n1` [Example 41, 2-{4-[4-(5-{(3R)-3-[(2,5,7-trimethyl[1,2,4]triazolo[1,5-a]pyrimidin-6-yl)methyl]pyrrolidin-1-yl}pyrazin-2-yl)benzyl]piperazin-1-yl}ethanol], the figures for the IC50 on MCT1 and on MCT4 [2] were > 25100 nM and 0.794 nM, respectively.

For `Cc1nc2nc(C)c(C[C@@H]3CCN(c4cnc(-c5ccc(CN6CCN(C)C[C@@H]6C)cc5)cn4)C3)c(C)n2n1` [Example 50, 6-(((R)-1-(5-(4-(((S)-2,4-dimethylpiperazin-1-yl)methyl)phenyl)pyrazin-2-yl)pyrrolidin-3-yl)methyl)-2,5,7-trimethyl-[1,2,4]triazolo[1,5-a]pyrimidine], the results for the IC50 at MCT1, against MCT4 [1] and at MCT4 [2] were > 25100 nM, 15.8 nM and 0.501 nM, respectively.

Regarding `Cc1nc2nc(C)c(C[C@@H]3CCN(c4cnc(-c5ccc(CN6CCN(C)CC6)cc5)c(C)n4)C3)c(C)n2n1` [Example 54, (R)-2,5,7-trimethyl-6-((1-(6-methyl-5-(4-((4-methylpiperazin-1-yl)methyl)phenyl)pyrazin-2-yl)pyrrolidin-3-yl)methyl)-[1,2,4]triazolo[1,5-a]pyrimidine], the IC50 at MCT4 [1] is 7.94 nM; at MCT4 [2], 0.398 nM.

For `Cc1nc2nc(C)c(C[C@@H]3CCN(c4cnc(-c5ccc(CN6CCN(C(=O)N(C)C)CC6)cc5)cn4)C3)c(C)n2n1` [Example 55, N,N-dimethyl-4-[4-(5-{(3R)-3-[(2,5,7-trimethyl[1,2,4]triazolo[1,5-a]pyrimidin-6-yl)methyl]pyrrolidin-1-yl}pyrazin-2-yl)benzyl]piperazine-1-carboxamide], the IC50 on MCT4 [1] was 10 nM; on MCT4 [2], 0.251 nM.

As to `Cc1nc2nc(C)c(C[C@@H]3CCN(c4cnc(-c5ccc(CN6CCN(C)CC6)c(C)c5)cn4)C3)c(C)n2n1` [Example 56, (R)-2,5,7-trimethyl-6-((1-(5-(3-methyl-4-((4-methylpiperazin-1-yl)methyl)phenyl)pyrazin-2-yl)pyrrolidin-3-yl)methyl)-[1,2,4]triazolo[1,5-a]pyrimidine], the IC50 is 20 nM on MCT4 [1] and 0.631 nM at MCT4 [2].

On to `Cc1nc2nc(C)c(C[C@@H]3CCN(c4cnc(-c5ccc(CN6CCN(C)CC6)nc5)cn4)C3)c(C)n2n1` [Example 57, (R)-2,5,7-trimethyl-6-((1-(5-(6-((4-methylpiperazin-1-yl)methyl)pyridin-3-yl)pyrazin-2-yl)pyrrolidin-3-yl)methyl)-[1,2,4]triazolo[1,5-a]pyrimidine], for which the IC50 is 126 nM on MCT4 [1] and 3.98 nM on MCT4 [2].

Take `Cc1nc2nc(C)c(C[C@@H]3CCN(c4cnc(-c5ccc(CN6CCN(C)CC6)cc5)cn4)C3)c(C)n2n1` [Example 59, (R)-2,5,7-trimethyl-6-((1-(5-(4-((4-methylpiperazin-1-yl)methyl)phenyl)pyrazin-2-yl)pyrrolidin-3-yl)methyl)-[1,2,4]triazolo[1,5-a]pyrimidine]: the IC50 at MCT1 was > 25100 nM.

For the compound `Cc1nc2nc(C)c(C[C@@H]3CCN(c4ccc(-c5ccc(CN6CCOCC6)cc5)nn4)C3)c(C)n2n1` [Example 61, (R)-4-(4-(6-(3-((2,5,7-trimethyl-[1,2,4]triazolo[1,5-a]pyrimidin-6-yl)methyl)pyrrolidin-1-yl)pyridazin-3-yl)benzyl)morpholine], the results for the IC50 at MCT4 [1] and on MCT4 [2] were 6.31 nM and 1 nM, respectively.

Consider `Cc1nc2nc(C)c(O[C@@H]3CCN(c4ccc(-c5ccc(CN6CCN(C)CC6)nn5)cc4)C3)c(C)n2n1` [Example 65, (R)-2,5,7-trimethyl-6-((1-(4-(6-((4-methylpiperazin-1-yl)methyl)pyridazin-3-yl)phenyl)pyrrolidin-3-yl)oxy)-[1,2,4]triazolo[1,5-a]pyrimidine], for which, on MCT1, the IC50 was > 25100 nM.

In the case of `CC(=O)N1CCN(Cc2ccc(-c3ccc(N4CC[C@@H](Oc5c(C)nc6nc(C)nn6c5C)C4)cc3)nn2)CC1` [Example 71, (R)-1-(4-((6-(4-(3-((2,5,7-trimethyl-[1,2,4]triazolo[1,5-a]pyrimidin-6-yl)oxy)pyrrolidin-1-yl)phenyl)pyridazin-3-yl)methyl)piperazin-1-yl)ethan-1-one], the IC50 on MCT1 is > 25100 nM.

`Cc1nc2nc(C)c(O[C@@H]3CCN(c4cnc(-c5ccc(CN6CCN(C)CC6)cc5)nc4)C3)c(C)n2n1` [Example 76, (R)-2,5,7-trimethyl-6-((1-(2-(4-((4-methylpiperazin-1-yl)methyl)phenyl)pyrimidin-5-yl)pyrrolidin-3-yl)oxy)-[1,2,4]triazolo[1,5-a]pyrimidine]: the IC50 is > 25100 nM at MCT1 and 2 nM at MCT4 [2].

Take `Cc1nc2nc(C)c(O[C@@H]3CCN(c4cnc(-c5ccc(CN6CCN(C)CC6)cc5)cn4)C3)c(C)n2n1` [Example 77, (R)-2,5,7-trimethyl-6-((1-(5-(4-((4-methylpiperazin-1-yl)methyl)phenyl)pyrazin-2-yl)pyrrolidin-3-yl)oxy)-[1,2,4]triazolo[1,5-a]pyrimidine]: the IC50 against MCT4 [1] is 15.8 nM; at MCT4 [2] it was 3.98 nM.

For the compound `Cc1nc2nc(C)c(O[C@@H]3CCN(c4cnc(-c5ccc(CN6CCOCC6)cc5)cn4)C3)c(C)n2n1` [Example 78, (R)-4-(4-(5-(3-((2,5,7-trimethyl-[1,2,4]triazolo[1,5-a]pyrimidin-6-yl)oxy)pyrrolidin-1-yl)pyrazin-2-yl)benzyl)morpholine], the values for the IC50 against MCT4 [1] and on MCT4 [2] were 6.31 nM and 2.51 nM, respectively.

On to `Cc1nc2nc(C)c(C[C@@H]3CCN(c4cnc(-c5ccc(CN6CCCC6)nc5)cn4)C3)c(C)n2n1` [Example 82, (R)-2,5,7-trimethyl-6-((1-(5-(6-(pyrrolidin-1-ylmethyl)pyridin-3-yl)pyrazin-2-yl)pyrrolidin-3-yl)methyl)-[1,2,4]triazolo[1,5-a]pyrimidine], for which the values for the IC50 against MCT4 [1] and on MCT4 [2] were 12.6 nM and 2.51 nM, respectively.

Values taken from US12503473B2, “Triazolopyrimidine compounds and their use in treating cancer” (Dizal (Jiangsu) Pharmaceutical Co., Ltd., priority 2018, dated 2025).
